Assay [1] concerns the target T1, MCR-4 (Homo sapiens, UniProt P32245).
T1 construct: expressed in transfected cells; host or cells: HEK 293
Description: Melanocortin receptor binding assay, competition with 125I-HP 467, HEK 293 cells expressing hMCR-4. Particulars: for pIC50: read-out: MC-4 IC50. In outline:
(§1)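 Intact-cell competition binding, 2.5 hr at 37 °C, in PBS/10% calf serum/1 mM CaCl2; hMCR-4 cells at 4×10^3 per tube, hMCR-1 cells at 2×10^4 per tube. Filtration on BSA/CaCl2-soaked GF/B, cold 50 mM Tris pH 7.4 washes, scintillation count.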

Assay [2] concerns the target T2, MCR-1 (Homo sapiens, UniProt Q01726).
T2 construct: expressed in transfected cells; host or cells: HEK 293
Kind of assay: Melanocortin receptor binding assay, competition with 125I-HP 467, HEK 293 cells expressing hMCR-1. Particulars: for pIC50: read-out: MC-1 IC50; for % Disp. MC-1 10 μM: displacement of 125I-HP 467 at 10 μM isoquinoline compound. In outline: as §1

Where [3] appears, read: inhibition of binding of 125I-HP 467, HEK 293 cells expressing MCR-4, TRG 2414 library.
The mark [4] stands for this setting: inhibition of binding of 125I-HP 467, HEK 293 cells expressing MCR-1, TRG 2414 library.
Setting [5] is: inhibition of binding of 125I-HP 467, HEK 293 cells expressing MCR-4.
The mark [6] stands for this setting: inhibition of binding of 125I-HP 467, HEK 293 cells expressing MCR-1.
Where [7] appears, read: TRG 2414 library, inhibition of binding of 125I-HP 467, HEK 293 cells expressing MCR-4.
Setting [8] is: TRG 2414 library, inhibition of binding of 125I-HP 467, HEK 293 cells expressing MCR-1.
Setting [9] is: TRG 2406 and TRG 2407 libraries, inhibition of binding of 125I-HP 467.
[10] abbreviates: TRG 2408 and TRG 2409 libraries, inhibition of 125I-HP 467 binding.
The mark [11] stands for this setting: competition with 125I-HP 467, HEK 293 cells expressing MCR-4.
Setting [12] is: competition with 125I-HP 467, HEK 293 cells expressing MCR-1.

Molecules are shown by their SMILES. pIC50: −log10 of the molar value. Where two headings read alike, the source gives them in different places.

The values below come from US6608082B1, “Treatment of erectile dysfunction using isoquinoline compound melanocortin receptor ligands” (Lion Bioscience AG, priority 1998, dated 2003).

T1 sequence (P32245 whole entry): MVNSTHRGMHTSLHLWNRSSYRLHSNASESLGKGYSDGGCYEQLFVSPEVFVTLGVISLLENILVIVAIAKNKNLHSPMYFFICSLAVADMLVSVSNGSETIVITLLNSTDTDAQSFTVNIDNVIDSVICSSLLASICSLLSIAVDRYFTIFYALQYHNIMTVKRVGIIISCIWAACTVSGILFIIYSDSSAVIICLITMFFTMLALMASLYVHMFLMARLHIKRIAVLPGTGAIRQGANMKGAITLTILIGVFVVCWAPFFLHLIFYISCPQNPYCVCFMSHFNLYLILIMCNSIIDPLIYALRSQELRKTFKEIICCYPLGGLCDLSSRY
T2 sequence (Q01726 whole entry): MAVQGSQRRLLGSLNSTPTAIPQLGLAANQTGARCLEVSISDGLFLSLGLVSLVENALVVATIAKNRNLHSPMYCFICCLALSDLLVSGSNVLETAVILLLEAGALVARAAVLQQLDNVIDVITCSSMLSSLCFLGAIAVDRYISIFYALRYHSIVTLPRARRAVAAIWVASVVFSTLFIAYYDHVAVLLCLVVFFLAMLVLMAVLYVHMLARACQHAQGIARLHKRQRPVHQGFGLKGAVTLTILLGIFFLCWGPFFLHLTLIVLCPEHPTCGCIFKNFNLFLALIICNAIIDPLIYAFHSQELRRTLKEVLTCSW

Turning to `CC(C)Cc1ccc(C(C)CNC(CN)CCCCN2Cc3ccccc3C(CNCc3ccccc3C(F)(F)F)C2c2ccc(Oc3ccccc3)cc2)cc1` (stereo not shown) [TRG 2414-124], the “MC-4 IC50” value in assay [1] (setting [3]) is given as “no fit”. Also, the “MC-1 IC50” value in assay [2] (setting [4]) is recorded as “no fit”.
For the compound `NCC(CCCCN1Cc2ccccc2C(CNCCc2ccc(Cl)cc2)C1c1cc(C(F)(F)F)cc(C(F)(F)F)c1)NCc1ccccc1` (stereo not shown) [TRG 2421-31], the pIC50 – broadly, the negative decadic logarithm of the IC50, by convention in mol/L – in assay [1] (setting [5]) is 5.56; in assay [2] (setting [6]) it was 5.23.
For the compound `CC(C)Cc1ccc(C(C)CNC(CN)CCCCN2Cc3ccccc3C(CNC3CCCCCC3)C2c2ccccc2Br)cc1` (stereo not shown) [Cmpd 236], the pIC50 was 4.74 in assay [1] (setting [7]) and 4.86 in assay [2] (setting [8]).
Consider `CNC(CN)CCCCN1Cc2ccccc2C(CN2CCOCC2)C1c1ccc(Cl)cc1Cl` (stereo not shown) [TRG 2407-33], for which the results for the pIC50 in assay [1] (setting [9]) and in assay [2] (setting [9]) were 5.22 and 5.16, respectively.
For the compound `CNC(CN)CCCCN1Cc2ccccc2C(CNCc2ccc(Cl)cc2)C1c1ccc(Cl)cc1Cl` (stereo not shown) [TRG 2407-18], the pIC50 in assay [1] (setting [9]) is 5.55; in assay [2] (setting [9]), 5.48.
Regarding `COc1ccc(CCNCC2c3ccccc3CN(CCCC[C@H](N)CN)C2c2ccc(Cl)cc2Cl)cc1` (stereo partly shown) [TRG 2414-25], the results for the negative logarithm of the IC50 (pIC50) in assay [1] (setting [3]) and in assay [2] (setting [4]) were 6.28 and 5.86, respectively.
On to `C=CCNCC1c2ccccc2CN(CCCCC(CN)NC)C1c1ccc(Cl)cc1Cl` (stereo not shown) [TRG 2407-36], for which the pIC50 was 6.34 in assay [1] (setting [9]) and 6.37 in assay [2] (setting [9]).
On to `COc1ccccc1CCNCC1c2ccccc2CN(CCCCC(CN)NCc2ccccc2)C1c1ccc(Oc2ccccc2)cc1` (stereo not shown) [TRG 2414-131], for which the pIC50 is 4.84 in assay [1] (setting [3]) and 5.78 in assay [2] (setting [4]).
Regarding `CNC(CN)CN1Cc2ccccc2C(CNC2CCCCC2)C1c1ccc(Cl)cc1Cl` (stereo not shown) [TRG 2405-100], the negative-log IC50 (pIC50) in assay [1] (TRG 2405 section, inhibition of binding of 125I-HP 467, HEK 293 cells expressing MCR-4) was 4.95; in assay [2] (TRG 2405 section, inhibition of binding of 125I-HP 467, HEK 293 cells expressing MCR-1) it was 4.91. The “% Disp. MC-1 10 μM” value was found to be 54.2% in assay [2] (first of duplicate) and 59.6% in assay [2] (second of duplicate).
As for `NCC(CCCCN1Cc2ccccc2C(CNC2CCCCC2)C1c1cccc(Oc2ccccc2)c1)NCCc1ccccc1` (mixture of isomers) [TRG 2414-118], the negative logarithm of the IC50 (pIC50) was 5.35 in assay [1] (setting [3]) and 5.07 in assay [2] (setting [4]).
`CCNc1ccc(C2C(CNCCc3ccccc3)c3ccccc3CN2CCCC(CN)NCCCCCNCCc2ccccc2)cc1` (stereo not shown) [TRG 2420-4]: the figures for the pIC50 in assay [1] (setting [5]) and in assay [2] (setting [6]) were 5.38 and 7.17, respectively.
Take `COc1ccccc1CCNCC1c2ccccc2CN(CCCCC(N)CN)C1c1cccc(Oc2ccccc2)c1` (stereo not shown) [TRG 2414-89]: the pIC50 in assay [1] (setting [3]) was 6.14; in assay [2] (setting [4]), 5.90.
On to `NCC(CCCCN1Cc2ccccc2C(CNCCc2ccccc2)C1c1cccc(C(F)(F)F)c1)NCc1ccccc1` (stereo not shown) [TRG 2421-41], for which the pIC50 was 5.76 in assay [1] (setting [5]) and 5.60 in assay [2] (setting [6]).
With `COc1ccccc1CCNCC1c2ccccc2CN(CCCCC(CN)NCC(C)c2ccc(CC(C)C)cc2)C1c1ccccc1Br` (stereo not shown) [Cmpd 212], the negative-log IC50 (pIC50) was 4.78 in assay [1] (setting [7]) and 4.74 in assay [2] (setting [8]).
With `CCCCNc1ccc(C2C(CNCCc3ccccc3)c3ccccc3CN2CCCC(CN)N2CCCC2)cc1` (stereo not shown) [TRG 2411-192], the pIC50 is 6.06 in assay [1] (setting [5]) and 7.15 in assay [2] (setting [6]).
As to `NCCNC(CN)CCN1Cc2ccccc2C(CNC2CCCCC2)C1c1ccc(-c2ccccc2)cc1` (stereo not shown) [TRG 2408-113], the pIC50 is 4.90 in assay [1] (setting [10]) and 5.42 in assay [2] (setting [10]).
`CCCCNc1ccc(C2C(CN)c3ccccc3CN2CCCCC(CN)NCCc2ccc3ccccc3c2)cc1` (stereo not shown) [TRG 2411-110]: the pIC50 in assay [1] (setting [11]) was 5.98; in assay [2] (setting [12]) it was 7.00.
Regarding `NCC(N)CCCCN1Cc2ccccc2C(CNCc2ccccc2)C1c1ccccc1Br` (stereo not shown) [Cmpd 229], the figures for the negative logarithm of the IC50 (pIC50) in assay [1] (setting [7]) and in assay [2] (setting [8]) were 5.89 and 5.06, respectively.
In the same order, the values of `CCCOc1ccc(C2C(CNC3CCCCC3)c3ccccc3CN2CCCCC(CN)NCc2ccccc2)cc1` (stereo not shown) [Cmpd 199] are 5.29 and 5.89.
In the case of `NCC(CCCCN1Cc2ccccc2C(CNCCc2cccc(Cl)c2)C1c1cc(C(F)(F)F)cc(C(F)(F)F)c1)NCCc1ccccc1` (stereo not shown) [TRG 2414-54], the negative logarithm of the IC50 (pIC50) in assay [1] (setting [3]) is 5.51; in assay [2] (setting [4]) it was 5.01.
On the same counts, the results for `COc1cccc(CNCC2c3ccccc3CN(CCCCC(N)CN)C2c2cccc(Oc3ccccc3)c2)c1` (mixture of isomers) [TRG 2414-97] are 5.60 and 5.35.
Regarding `NCC(CCCCN1Cc2ccccc2C(CNCCc2ccccc2)C1c1ccc(-c2ccccc2)cc1)N1CCCC1` (stereo not shown) [TRG 2411-9], the pIC50 was 5.90 in assay [1] (setting [11]) and 6.89 in assay [2] (setting [12]).
As to `CNC(CN)CCCCN1Cc2ccccc2C(CNC2CCCCC2)C1c1ccc(NCc2ccc(OC)cc2)cc1` (stereo not shown) [TRG 2409-18], the pIC50 in assay [1] (setting [11]) was 4.77; in assay [2] (setting [12]) it was 5.12.
`CCNc1ccc(C2C(CNC3CCCCC3)c3ccccc3CN2CCCCC(CN)NCCc2ccc(OC)cc2)cc1` (stereo not shown) [TRG 2411-53]: the results for the pIC50 in assay [1] (setting [11]) and in assay [2] (setting [12]) were 5.78 and 6.55, respectively.
Take `CCNc1ccc(C2C(CN)c3ccccc3CN2CCC[C@@H](CN)NCCCCOc2ccccc2)cc1` (stereo partly shown) [2424#2]: the negative logarithm of the IC50 (pIC50) in assay [1] (setting [5]) is 5.11; in assay [2] (setting [6]), 7.30.
Take `NCC(CCCCN1Cc2ccccc2C(CNC2CCCCCC2)C1c1ccc(Oc2ccccc2)cc1)NCCc1ccccc1` (stereo not shown) [TRG 2414-154]: the pIC50 in assay [1] (setting [3]) was 5.12; in assay [2] (setting [4]), 5.31.
For the compound `CNC(CN)CCCCN1Cc2ccccc2C(CNCCc2ccccc2OC)C1c1ccc(Cl)cc1Cl` (mixture of isomers) [TRG 2407-23], the figures for the negative logarithm of the IC50 (pIC50) in assay [1] (setting [9]) and in assay [2] (setting [9]) were 6.16 and 6.03, respectively.
Regarding `CC(C)Cc1ccc(C(C)CNC(CN)CCCCN2Cc3ccccc3C(CNC3CCCCC3)C2c2ccccc2Br)cc1` (stereo not shown) [Cmpd 240], the pIC50 in assay [1] (setting [7]) was 5.00; in assay [2] (setting [8]) it was 5.05.
Consider `COc1ccc(CNC(CN)CCCCN2Cc3ccccc3C(CNCCc3cccc(OC)c3)C2c2cc(C(F)(F)F)cc(C(F)(F)F)c2)cc1` (stereo not shown) [TRG 2421-39], for which the pIC50 in assay [1] (setting [5]) was 5.98; in assay [2] (setting [6]) it was 5.48.
For `CCNc1ccc(C2C(CNCCc3ccccc3)c3ccccc3CN2CCCC(CN)NCC2CC2CNCc2ccccc2)cc1` (stereo not shown) [TRG 2420-6], the negative logarithm of the IC50 (pIC50) in assay [1] (setting [5]) was 5.29; in assay [2] (setting [6]), 6.99.
With `CCNc1ccc(C2C(CN)c3ccccc3CN2CCCC(CN)NCCc2ccccc2)cc1` (stereo not shown) [TRG 2411-179], the negative logarithm of the IC50 (pIC50) in assay [1] (setting [5]) is 5.84; in assay [2] (setting [6]), 7.15.
Consider `CNC(CN)CCCCN1Cc2ccccc2C(CNC2CCCC2)C1c1ccc(Cl)cc1Cl` (stereo not shown) [TRG 2407-27], for which the negative-log IC50 (pIC50) in assay [1] (setting [9]) is 6.28; in assay [2] (setting [9]), 6.24.
With `CCNc1ccc(C2C(CNCCc3ccccc3)c3ccccc3CN2CCCC(CN)NCCOCCNC(C)C)cc1` (stereo not shown) [TRG 2420-9], the pIC50 is 5.49 in assay [1] (setting [5]) and 7.40 in assay [2] (setting [6]).
For `NCCNC(CN)CCCCN1Cc2ccccc2C(CNC2CCCCC2)C1c1ccc(-c2ccccc2)cc1` (stereo not shown) [TRG 2408-23], the pIC50 in assay [1] (setting [10]) is 4.69; in assay [2] (setting [10]), 6.09.
Take `COc1ccc(CNCC2c3ccccc3CN(CCCCC(N)CN)C2c2ccc(Cl)cc2Cl)cc1` (stereo not shown) [Cmpd 247]: the “MC-4 IC50” value in assay [1] (setting [7]) is recorded as “no fit”. In assay [2] (setting [8]), the “MC-1 IC50” value is given as “no fit”.
For the compound `NCC(CCCCN1Cc2ccccc2C(CNCCc2ccc(O)cc2)C1c1cc(C(F)(F)F)cc(C(F)(F)F)c1)NCc1ccc(-c2ccccc2)cc1` (stereo not shown) [TRG 2421-10], the pIC50 in assay [1] (setting [5]) was 5.04; in assay [2] (setting [6]), 5.32.
Regarding `CCCOc1ccc(C2C(CNCc3ccccc3C(F)(F)F)c3ccccc3CN2CCCCC(CN)NCCc2ccccc2)cc1` (mixture of isomers) [TRG 2414-162], the negative-log IC50 (pIC50) was 4.73 in assay [1] (setting [3]) and 4.72 in assay [2] (setting [4]).
